22 compounds from paper doi:10.1101/2024.08.19.608619, “Discovery of potent SARS-CoV-2 nsp3 macrodomain inhibitors uncovers lack of translation to cellular antiviral response” (bioRxiv, 2024) can be followed below.

Assay [1] deals with T1, SARS-CoV-2 nsp3-mac1 (Severe acute respiratory syndrome coronavirus 2, UniProt P0DTD1). The assay can be described thus: biochemical. The arrangement: SARS-CoV-2 nsp3 macrodomain TR-FRET single point, per cent inhibition, n=2.
Assay [2] has as its target T1, SARS-CoV-2 nsp3-mac1. The assay can be described thus: biochemical. The format is biochemical. The note with it: SARS-CoV-2 nsp3 macrodomain TR-FRET single point, concentration 50.0 uM. On the technique in general: TR-FRET usually uses a lanthanide donor and a delayed reading to cut background.

Like-named read-outs stand apart in the source and are kept apart here.

For the compound `FC(F)(F)c1nc(NC[C@H]2CCCO2)c2nc[nH]c2n1` [ASAP-0000088], the inhibition at 50 µM at SARS-CoV-2 nsp3-mac1 [1] (read-out: perc_inhibition_mean, batch_name=ASAP-0000088-001) was 2.5%. In addition, the perc_inhibition_mean at SARS-CoV-2 nsp3-mac1 [2] is given as 2.501%.

As for `COCc1nc(CNc2c(C#N)c(C)nn2C)cs1` [ASAP-0000089], the inhibition at 50 µM at SARS-CoV-2 nsp3-mac1 [1] (read-out: perc_inhibition_mean, batch_name=ASAP-0000089-001) amounted to 0.8%. Also, the perc_inhibition_mean at SARS-CoV-2 nsp3-mac1 [2] was 0.8%.

On to `Cc1[nH]c2ncnc(NC(=O)[C@@H]3CCO[C@@H]3C)c2c1C` [ASAP-0000090], for which the inhibition at 50 µM at SARS-CoV-2 nsp3-mac1 [1] (read-out: perc_inhibition_mean, batch_name=ASAP-0000090-001) is 35.1%. Moreover, on SARS-CoV-2 nsp3-mac1 [2], the perc_inhibition_mean was 35.092%.

For `O=C1CC[C@H](COC(=O)c2ncnc3[nH]ccc23)CCN1` [ASAP-0000091], the inhibition at 50 µM at SARS-CoV-2 nsp3-mac1 [1] (read-out: perc_inhibition_mean, batch_name=ASAP-0000091-001) is -7.87%. For the same compound, the perc_inhibition_mean on SARS-CoV-2 nsp3-mac1 [2] was -7.865%.

As to `c1ccc2c(-c3c[nH]c4ncccc34)n[nH]c2c1` [ASAP-0000092], at SARS-CoV-2 nsp3-mac1 [1] (read-out: perc_inhibition_mean, batch_name=ASAP-0000092-001), the inhibition at 50 µM is -7.25%. In addition, the perc_inhibition_mean on SARS-CoV-2 nsp3-mac1 [2] was -7.254%.

With `CCO[C@@H]1C[C@@H](Nc2ncnc3[nH]ccc23)C12CCOCC2` [ASAP-0000093], the inhibition at 50 µM at SARS-CoV-2 nsp3-mac1 [1] (read-out: perc_inhibition_mean, batch_name=ASAP-0000093-001) turned out to be 2.32%. Further, the perc_inhibition_mean at SARS-CoV-2 nsp3-mac1 [2] turned out to be 2.316%.

In the case of `O=C1C[C@@]2(CCCN(c3ncnc4[nH]ccc34)C2)CN1` [ASAP-0000094], the inhibition at 50 µM on SARS-CoV-2 nsp3-mac1 [1] (read-out: perc_inhibition_mean, batch_name=ASAP-0000094-001) is -2.45%. The perc_inhibition_mean at SARS-CoV-2 nsp3-mac1 [2] was -2.451%.

With `Cn1nc(NCc2cc3c(=O)[nH]ccc3o2)c2nccnc21` [ASAP-0000095], the inhibition at 50 µM at SARS-CoV-2 nsp3-mac1 [1] (read-out: perc_inhibition_mean, batch_name=ASAP-0000095-001) is -1.01%. At SARS-CoV-2 nsp3-mac1 [2], the perc_inhibition_mean is -1.007%.

Turning to `Cn1ncc2c(NCc3ncccc3O)ncnc21` [ASAP-0000096], the inhibition at 50 µM at SARS-CoV-2 nsp3-mac1 [1] (read-out: perc_inhibition_mean, batch_name=ASAP-0000096-001) was 3.89%. Besides, the perc_inhibition_mean on SARS-CoV-2 nsp3-mac1 [2] came out at 3.893%.

`O=S(=O)(Nc1ncccn1)c1ccc2oc3ccccc3c2c1` [ASAP-0000097]: the inhibition at 50 µM on SARS-CoV-2 nsp3-mac1 [1] (read-out: perc_inhibition_mean, batch_name=ASAP-0000097-001) was -3%. Further, the perc_inhibition_mean at SARS-CoV-2 nsp3-mac1 [2] is -3.004%.

As for `COCc1nc(CNc2ncc3c(n2)COC3)cs1` [ASAP-0000098], at SARS-CoV-2 nsp3-mac1 [1] (read-out: perc_inhibition_mean, batch_name=ASAP-0000098-001), the inhibition at 50 µM was -7.14%. Besides, the perc_inhibition_mean on SARS-CoV-2 nsp3-mac1 [2] is reported as -7.137%.

Turning to `Cn1nc(NC(=O)c2cc(-c3ccco3)[nH]n2)c2nccnc21` [ASAP-0000099], the inhibition at 50 µM at SARS-CoV-2 nsp3-mac1 [1] (read-out: perc_inhibition_mean, batch_name=ASAP-0000099-001) is -5.4%. At SARS-CoV-2 nsp3-mac1 [2], the perc_inhibition_mean is given as -5.398%.

Consider `O=S(=O)(NC[C@H]1CCOC1)c1cn2c(n1)CCCC2` [ASAP-0000100], for which, at SARS-CoV-2 nsp3-mac1 [1] (read-out: perc_inhibition_mean, batch_name=ASAP-0000100-001), the inhibition at 50 µM is -3.2%. The perc_inhibition_mean at SARS-CoV-2 nsp3-mac1 [2] is -3.203%.

As to `Cc1nc2cnccn2c1NC(=O)c1cc(-c2ccco2)[nH]n1` [ASAP-0000101], the inhibition at 50 µM on SARS-CoV-2 nsp3-mac1 [1] (read-out: perc_inhibition_mean, batch_name=ASAP-0000101-001) is -3.88%. Further, the perc_inhibition_mean on SARS-CoV-2 nsp3-mac1 [2] is recorded as -3.884%.

As for `O=C(Cc1ccon1)Nc1ncnc2[nH]cnc12` [ASAP-0000102], the inhibition at 50 µM at SARS-CoV-2 nsp3-mac1 [1] (read-out: perc_inhibition_mean, batch_name=ASAP-0000102-001) is -1.61%. For the same compound, the perc_inhibition_mean at SARS-CoV-2 nsp3-mac1 [2] is listed as -1.615%.

Take `Cc1ncc(NCc2ncn(C)c2Cl)cc1C(N)=O` [ASAP-0000103]: the inhibition at 50 µM on SARS-CoV-2 nsp3-mac1 [1] (read-out: perc_inhibition_mean, batch_name=ASAP-0000103-001) is 2.41%. In addition, the perc_inhibition_mean on SARS-CoV-2 nsp3-mac1 [2] was 2.409%.

Regarding `Cc1ncc(NCc2cc3n(n2)CCOC3)cc1C(N)=O` [ASAP-0000104], the inhibition at 50 µM at SARS-CoV-2 nsp3-mac1 [1] (read-out: perc_inhibition_mean, batch_name=ASAP-0000104-001) amounted to 0.46%. Besides, the perc_inhibition_mean on SARS-CoV-2 nsp3-mac1 [2] turned out to be 0.46%.

For `O=S(=O)(NC[C@@H]1CCCCO1)c1cn2c(n1)CCCC2` [ASAP-0000105], the inhibition at 50 µM at SARS-CoV-2 nsp3-mac1 [1] (read-out: perc_inhibition_mean, batch_name=ASAP-0000105-001) is -5.39%. In addition, the perc_inhibition_mean on SARS-CoV-2 nsp3-mac1 [2] was -5.386%.

On to `Cc1cc(NCc2csc(C)n2)ncn1` [ASAP-0000106], for which the inhibition at 50 µM on SARS-CoV-2 nsp3-mac1 [1] (read-out: perc_inhibition_mean, batch_name=ASAP-0000106-001) is -4.64%. Moreover, the perc_inhibition_mean on SARS-CoV-2 nsp3-mac1 [2] was -4.644%.

`COc1ccccc1CN(C[C@@H]1CCCO1)c1ncnc2[nH]ccc12` [ASAP-0000107]: the inhibition at 50 µM at SARS-CoV-2 nsp3-mac1 [1] (read-out: perc_inhibition_mean, batch_name=ASAP-0000107-001) stood at 4.74%. Moreover, on SARS-CoV-2 nsp3-mac1 [2], the perc_inhibition_mean came out at 4.74%.

As for `Cc1cccc([C@@H]2CCCN2c2ncnc3[nH]ccc23)n1` [ASAP-0000108], the inhibition at 50 µM on SARS-CoV-2 nsp3-mac1 [1] (read-out: perc_inhibition_mean, batch_name=ASAP-0000108-001) amounted to 0.182%. Further, on SARS-CoV-2 nsp3-mac1 [2], the perc_inhibition_mean was 0.182%.

With `CC(=O)Nc1ccc(S(=O)(=O)NNc2ncnc3sccc23)cc1` [ASAP-0000109], the inhibition at 50 µM at SARS-CoV-2 nsp3-mac1 [1] (read-out: perc_inhibition_mean, batch_name=ASAP-0000109-001) is 5.36%. Also, on SARS-CoV-2 nsp3-mac1 [2], the perc_inhibition_mean came out at 5.363%.
